{"source": "patent US4213968A", "about": "“Enkephalin derivatives” (priority 1978, dated 1980)", "origin": "cited, not measured here", "key": {"[1]": {"system": "brain opiate receptor sites"}, "analgesia in the rat": {"system": "analgesia in the rat", "conditions": "injected directly into the brain of the rat"}}, "data": [{"substance": "H-Tyr-Gly-Gly-Phe-Met-OH [methionine enkephalin]", "values": [{"measurement": "binding to partially purified brain opiate receptor sites", "setting": "[1]", "result": "binds stereospecifically"}, {"measurement": "activity in bioassays for opiate activity", "setting": "opiate activity", "result": "very active"}, {"measurement": "analgesic activity", "setting": "analgesia in the rat", "result": "weak analgesic activity of short duration"}]}]}
